Assay results as given in patent US20080234241A1, “MELANOGENESIS INHIBITORS AND WHITENING AGENTS COMPRISING ERGOSTEROL DERIVATIVE AND COMPOSITIONS CONTAINING ERGOSTEROL DERIVATIVE” (Sakamoto Bio Co., Ltd., priority 2000, published 2008).

Assays:
B 16 IOF7 melanoma cells = test: Melanogenesis inhibitory effect in B16 melanoma cells; format: cell-based, mouse; details: for Minimum concentration for inhibition of melanogenesis: B16 cells cultivated 72 hours at 37° C., melanin from absorbance at 470 nm against methanol-treated control as 100%
Procedure: Melanogenesis inhibitory activity was evaluated using B 16 IOF7 melanoma cells (obtained from the Akita Research Institute of Food and Brewing, Japan), which are melanogenic cells of mouse cells, by application to the cells of an isolated form of Formula (1) described above in a solution diluted with the couture medium, thereby observing the production of melanin. The B16 cells, cultivated to a 70% confluent level in a flask, were washed with PBS and then were treated with a trypsin solution to isolate the cells. The same volume of a serum-containing culture medium (E-MEM, 10% FBS) as that of the trypsin was added to the flask, followed by collecting the cells and centrifuging (800 rpm, 5 min.). After this phase of the process, the number of cells was counted and adjusted to approximately 10^4 cells/ml in the culture medium (E-MEM, 10% FBS). A diluted solution of Formula (1) was prepared by placing 20 μL of sterile PBS on a cell culturing plate (a type for adherent cells) along with 20 μL of a Formula (1) solution, thereby doubling dilution (a final concentration in the culture medium from 100 μg/mL to […]). The control arbutin (a final concentration in the culture medium from 140 μg/mL to 0.22 μg/mL) in methanol was similarly diluted.
Then 80 μL of the cell suspension was added to the diluted sample solution (20 μL) on the plate, and the mixture was cultivated in a CO2 incubator at 37° C. for 72 hours. Melanogenesis in the cells was observed under a microscope. In cases where melanogenesis was confirmed microscopically, the culture medium was removed, and the cell layer was treated with 300 μL of 1N NaOH to dissolve the melanin, where the concentration of the melanin formed was determined from measurement of absorbance at 470 nm. The levels of Formula (1) and arbutin used were varied to determine their minimum concentrations needed for inhibiting melanogenesis, against the value of the methanol-treated control as 100%.

[1] = system: pigment deposition on brachial skin; test: Measurement of whitening effect: lotion applied to brachial skin after exposure to sun light; format: in vivo, men; details: for Decision (whitening effect): lotion, group of 20 men, applied twice everyday for 5 weeks starting five days after sun exposure; for Whitening effect of lotions, result in words: lotions of Table 2, 20 men, 5 weeks
Procedure: Preparation the Alcohol and Water Phases are Prepared, Mixed, and Dissolved
A test group made up of 20 men was exposed to sun light in summer for four hours per day from […]. for 2 days. Five days after the exposure to the sun light, the lotion described above was applied to the group on the brachial skin twice everyday, once each in the morning and in the evening for 5 weeks.

## OC[C@H]1O[C@@H](Oc2ccc(O)cc2)[C@H](O)[C@@H](O)[C@@H]1O [Arbutin, arbutin, reference compound]
B 16 IOF7 melanoma cells
  Minimum concentration for inhibition of melanogenesis: 0.88 µg/mL

## CC(C)[C@@H](C)/C=C/[C@@H](C)[C@H]1CC[C@@H]2[C@]1(C)CCC1[C@]23C=C[C@]2(C[C@@H](O)CC[C@]12C)OO3 (stereo partly drawn) [Formula (1), 5α,8α-epidioxy-(22E,24R)-orgosta-6,22-dien-3β-ol]
B 16 IOF7 melanoma cells; 72 hours culture, compared with arbutin
  Microscopic observation of melanogenesis in B16 cells: inhibited more extensively by Formula (1) than by arbutin
B 16 IOF7 melanoma cells
  Minimum concentration for inhibition of melanogenesis: 0.045 µg/mL
[1]; content 0.2 % w/w
  Decision (whitening effect): B (11 to 15 out of the group rated “Effective” or “More effective”)
[1]; content 1.0 % w/w
  Decision (whitening effect): A (16 or more out of the group rated “Effective” or “More effective”)
[1]
  Whitening effect of lotions, result in words: prevented pigment deposition and gave a whitening effect

## Oc1ccc(O)cc1 [hydroquinone, reference compound]
[1]; content 1.0 % w/w
  Decision (whitening effect): C (6 to 10 out of the group rated “Effective” or “More effective”)
[1]
  Whitening effect of lotions, result in words: nor Comparative example 2 (hydroquinone) was effective
